Assay results: patent US8501237B2, “Formulations of water insoluble or poorly water soluble drugs in lipidated glycosaminoglycan particles and their use for diagnostics and therapy” (Tel-Aviv University Future Technology Development L.P., priority 2004, dated 2013)
Where two headings read alike, the source gives them in different places.

Experiments:
[1] = tested on: B16F10.9 cells; assay: Cytotoxicity in vitro (MTT or SRB), B16F10.9; format: cell-based, mouse
Procedure: (§1) Cytotoxicity of paclitaxel and of gagomer-encapsulated paclitaxel was evaluated over a matrix of drug-gagomer formulations (see Examples 1, 2 and 3), cell lines and treatment protocols, for the drug concentration range spanning from 1 nM to 100 μM.
(§2) Twenty four hours prior to an experiment, cells of the desired line were seeded onto 96-well multiwell culture plates at densities in the range of 5×10^3 cells/well. The experiments were initiated on sub-confluent monolayers. Two protocols were used:
(§3) (I) Short protocol. The cells were incubated with the treatment media for 4 hours, at the end of which the treatment media was aspirated, the cells washed and incubated for 44 hours in drug-free serum-supplemented cell growth media. Termination was 48 hours from start.
(§4) (II) Long protocol: the cells were incubated in the treatment media for 48 hours. Upon termination, in either protocol, cell viability was determined in each well using either the MTT or the SRB assay method.
(§5) The rationale for the two protocols, the long and the short, is as follows: The long protocol is the traditional one used for in vitro comparisons of cytotoxicity among different drug formulations. The cells are incubated with the treatment formulations for periods usually within the 24-72 hour time span, and all formulations are incubated for the same time. […]

[2] = tested on: D122 cells; assay: Cytotoxicity in vitro (MTT or SRB), D122; format: cell-based; conditions: Mus musculus
Procedure: as §1, §2, §3, §4, §5

[3] = tested on: C-26 cells; assay: Cytotoxicity in vitro (MTT or SRB), C-26; format: cell-based; conditions: Mus musculus
Procedure: as §1, §2, §3, §4, §5

[4] = tested on: PANC-1 cells; assay: Cytotoxicity in vitro (MTT or SRB), PANC-1; format: cell-based; conditions: Homo sapiens
Procedure: as §1, §2, §3, §4, §5

[5] = tested on: SNU-251 cells; assay: Cytotoxicity in vitro (MTT or SRB), SNU-251; format: cell-based; conditions: Homo sapiens
Procedure: as §1, §2, §3, §4, §5

[6] = tested on: B16F10.9 cultures; assay: Cytotoxicity before and after sterilization (autoclaving) in B16F10.9 cultures; format: cell-based; conditions: Mus musculus
Procedure: Aqueous suspensions of TX-GAG particles were prepared according to the scheme of FIG. 7, up to and including step 5. Aqueous suspensions of paclitaxel alone (i.e., free paclitaxel) were also prepared. Samples were set aside, from both the TX-GAG and the free paclitaxel, and the remainder of each system was subjected to the following sterilization process: 12 minutes of autoclaving at 120° C. A critical question of whether this sterilization process is feasible for the TX-GAG formulations, is retention of drug activity. Therefore, the original samples set aside prior to the sterilization process, as well as the samples that underwent the process, were tested for their cytotoxicity, in B16F10.9 cultures, as described in Example 7.

[7] = 4 hours treatment, then 44 hours drug-free media, read-out: IC50 short protocol
[8] = 48 hours incubation with treatment media, read-out: IC50 long protocol

CC(=O)O[C@H]1C(=O)[C@@]2(C)[C@H]([C@H](OC(=O)c3ccccc3)[C@]3(O)C[C@H](OC(=O)[C@H](O)[C@@H](NC(=O)c4ccccc4)c4ccccc4)C(C)=C1C3(C)C)[C@]1(OC(C)=O)CO[C@@H]1C[C@@H]2O [Free Paclitaxel, paclitaxel]
IC50 ([1]; Mus musculus, B16F10.9, ethanol as the lipid solvent, 4 hours treatment, then 44 hours drug-free media (Table 6), read-out: IC50 short protocol): 1800 nM | cytotoxic activity after heating of ethanolic solutions ([1]; ethanolic paclitaxel solutions heated at 40-70° C., same cytotoxicity assay): did not impair the drug's cytotoxic activity | IC50 [2, 7]: 900 nM | IC50 [2, 8]: 250 nM | IC50 ([3]; C26, 4 hours treatment, then 44 hours drug-free media, read-out: IC50 short protocol): 3000 nM | IC50 ([3]; C26, 48 hours incubation with treatment media, read-out: IC50 long protocol): 3500 nM | IC50 [4, 7]: 300 nM | IC50 [4, 8]: 20 nM | IC50 [5, 7]: 600 nM | IC50 [5, 8]: 250 nM | IC50 ([6]; after sterilization: 12 minutes of autoclaving at 120° C. (FIG. 10)): ~300 nM | IC50 ([6]; before sterilization (FIG. 10)): ~300 nM
